Assay results reported in patent publication US11154589B2, “Antimicrobial composition combinations comprising star shaped peptide polymers” (The University of Melbourne, priority 2016, dated 2021).
In brackets after ≈: the same amount, converted by molar mass. Like-named read-outs stand apart in the source and are kept apart here. Marks after values point to notes of the source that are not given here.

Key:
[1] = test system: CMDR P. aeruginosa (FADDI-PA067); experiment: MBC determination (in vitro antimicrobial experiment, CFU counting); type: cell-based, Pseudomonas aeruginosa; details: compound alone
Description: (§1) Freeze-dried cultures of Escherichia coli (E. coli, ATCC 25922), Klebsiella pneumoniae (K. pneumoniae, ATCC 13883), Pseudomonas aeruginosa (P. aeruginosa, ATCC 47085), Acinetobacter baumannii (A. baumannii, ATCC 19606), colistin and multidrug-resistant (CMDR) A. baumannii (FADDI-AB156), and CMDR P. aeruginosa (FADDI-PA067) were grown aerobically and maintained by passage at ambient temperature on horse blood agar (10% v/v defibrinated horse blood, 4.4% w/v Oxoid Blood Agar Base No. 2). Overnight cultures were made from transferring a colony (ca. half a loop) from the agar plates to culture tubes containing sterilized Luria-Bertani broth (LB, 1% w/v Bacto™ Tryptone, 1% w/v NaCl, 0.5% w/v Oxoid Yeast Extract) (20 mL). Bacterial cultures were incubated overnight at 37° C. with aeration and without agitation, with the exception of the two P. aeruginosa strains (ATCC 47085 and FADDI-PA067) which were cultured at 37° C. with aeration and agitation (150 rpm). On the next day, for E. coli, K. pneumonia, P. aeruginosa (ATCC 47085), and CMDR P. aeruginosa (FADDI-PA067), small aliquots (i.e., 0.5-3 mL) were taken from the culture tubes, further diluted with LB (20 mL), and incubated for 3-4 h at 37° C. with aeration before use. All bacterial cultures were cultured without agitation, with the exception of P. aeruginosa ATCC 47085 and FADDI-PA067 which were cultured with shaking at 150 rpm. For A. baumannii, an aliquot of 0.5 mL was taken from the overnight culture tube, further diluted with LB (200 mL), and incubated overnight at 37° C. with aeration before use.
(§2) The 96-well plate was then incubated at 37° C. for 1.5 or 3 h. For each well, microbial solution was diluted with saline (0.9% NaCl solution) using an appropriate dilution factor and placed on a LB agar plate (LB broth containing 15 g/L Oxoid Blood Agar Base No. 2). For E. coli, K. pneumoniae, and A. Baumannii (ATCC 19606 and FADDI-AB156), the agar plates were incubated overnight at room temperature, and then at 37° C. with aeration for 2 h. For P. Aeruginosa (ATCC 47085 and FADDI-PA067), the agar plates were incubated at 37° C. with aeration. The number of colony-forming units (CFU) was counted and expressed as CFU/mL. Positive controls consisting of cells without any treatment were used. […] A minimum of two independent experiments (biological replicates) of the assay were conducted and three technical replicates were used in each experiment. Data is expressed as mean±standard deviation (SD) and analysed using student's t-test.

[2] = test system: CMDR A. baumannii (FADDI-AB156); experiment: Antibiogram of CMDR A. baumannii (MIC); type: cell-based, Acinetobacter baumannii; details: CMDR A. baumannii (FADDI-AB156); for Susceptibility: interpreted by CLSI resistant breakpoints; for MIC: read-out: MIC
[3] = test system: Escherichia coli (E. coli, ATCC 25922); experiment: MBC determination (in vitro antimicrobial experiment, CFU counting); type: cell-based
Description: as §1, §2

[4] = test system: Acinetobacter baumannii (A. baumannii, ATCC 19606); experiment: as above; type: cell-based; details: compound alone, A. baumannii (wild-type)
Description: as §1, §2

[5] = test system: Klebsiella pneumoniae (K. pneumoniae, ATCC 13883); experiment: as above; type: cell-based
Description: as §1, §2

[6] = test system: Pseudomonas aeruginosa (P. aeruginosa, ATCC 47085); experiment: as above; type: cell-based; details: compound alone, P. aeruginosa (wild-type)
Description: as §1, §2

[7] = test system: CMDR A. baumannii (FADDI-AB156); experiment: as above; type: cell-based, Acinetobacter baumannii; details: compound alone
Description: as §1, §2

[8] = test system: CMDR P. aeruginosa (FADDI-PA067); experiment: Antibiogram of CMDR P. aeruginosa; type: cell-based, Pseudomonas aeruginosa; details: interpreted by CLSI resistant breakpoints
[9] = test system: Escherichia coli (E. coli, ATCC 25922); experiment: S16-antibiotic co-administration, synergy by Bliss Independence and HSA models; type: cell-based; details: for MBC in combination: S16 and antibiotic co-administered, each at MBC50, 3 h; for Antimicrobial activity on co-administration with S16 compared to compounds alone (log change in CFU/mL): all compounds at MBC50, t=3 h; for Synergistic? (Yes/No) Bliss* / Synergistic? (Yes/No) HAS*: antibiotic in combination with S16, 3 h; for Synergistic? (Yes/No) Bliss*: Bliss Independence model; for Synergistic? (Yes/No) HAS*: Highest Single Agent model
Description: as §2
(§3) The Bliss Independence and HSA models were used to calculate drug synergism. […] Biotechnol. 31, 160-165 (2013). With the Bliss Independence model, synergism was calculated using the formula, BICAB=A+B−AB (1), where A and B are the effects of the two drugs in isolation and BICAB is the combined effect of the two drugs as predicted by the Bliss Independence model. […] In the HSA model, if CAB is greater than the greater of A and B, CAB>max(A, B), synergy is observed. The quantitative effect of the compounds when administered alone (i.e., A and B) or in combination (i.e., CAB) was defined as the fractional reduction of the population, R=1−CFUt/CFU0, where CFUt is the CFU/mL measured after treatment, and CFU0 is the CFU/mL measured before treatment.

[10] = test system: Acinetobacter baumannii (A. baumannii, ATCC 19606); experiment: as above; type: cell-based; details: for Interaction with S16 as evaluated by the Bliss Independence and HSA models (in words) / Antimicrobial activity on co-administration with S16 compared to compounds alone (log change in CFU/mL): A. baumannii wild-type; for Interaction with S16 as evaluated by the Bliss Independence and HSA models (in words): 3 h time point; for Antimicrobial activity on co-administration with S16 compared to compounds alone (log change in CFU/mL): all compounds at MBC50, t=3 h; for MBC in combination / Synergistic? (Yes/No) Bliss* / Synergistic? (Yes/No) HAS*: A. baumannii, 3 h; for MBC in combination: S16 and antibiotic co-administered, each at MBC50; for Synergistic? (Yes/No) Bliss* / Synergistic? (Yes/No) HAS*: antibiotic in combination with S16; for Synergistic? (Yes/No) Bliss*: Bliss Independence model; for Synergistic? (Yes/No) HAS*: Highest Single Agent model
Description: as §2, §3

[11] = test system: Klebsiella pneumoniae (K. pneumoniae, ATCC 13883); experiment: as above; type: cell-based; details: for MBC in combination: S16 and antibiotic co-administered, each at MBC50, 3 h; for Antimicrobial activity on co-administration with S16 compared to compounds alone (log change in CFU/mL): all compounds at MBC50, t=3 h; for Synergistic? (Yes/No) Bliss* / Synergistic? (Yes/No) HAS*: antibiotic in combination with S16, 3 h; for Synergistic? (Yes/No) Bliss*: Bliss Independence model; for Synergistic? (Yes/No) HAS*: Highest Single Agent model
Description: as §2, §3

[12] = test system: Pseudomonas aeruginosa (P. aeruginosa, ATCC 47085); experiment: as above; type: cell-based; details: for Antimicrobial activity on co-administration with S16 compared to compounds alone (log change in CFU/mL): all compounds at MBC50; for MBC in combination: S16 and antibiotic co-administered, each at MBC50; for Synergistic? (Yes/No) Bliss* / Synergistic? (Yes/No) HAS*: antibiotic in combination with S16; for Synergistic? (Yes/No) Bliss*: Bliss Independence model; for Synergistic? (Yes/No) HAS*: Highest Single Agent model; for Fold reduction of MBC: MBCeff with S16 versus MBC alone
Description: as §2, §3

[13] = test system: CMDR A. baumannii (FADDI-AB156); experiment: as above; type: cell-based, Acinetobacter baumannii
Description: as §2, §3

gentamicin
MBC [1]: <1.1 µM | Susceptibility [2]: Resistant | MIC [2]: >1104.5 µM | MBC ([3]; compound alone): 3.7 µM | MBC [4]: 12.1 µM | MBC ([5]; compound alone): 2.2 µM | MBC [6]: 2.4 µM | MBC [7]: >1104.5 µM | Susceptibility [8]: Resistant | MBC in combination [9]: 2.2 µM | Antimicrobial activity on co-administration with S16 compared to compounds alone (log change in CFU/mL) [9]: enhanced efficacy | Synergistic? (Yes/No) Bliss* [9]: Yes | Synergistic? (Yes/No) HAS* [9]: Yes | Interaction with S16 as evaluated by the Bliss Independence and HSA models (in words) [10]: non-synergistic | Antimicrobial activity on co-administration with S16 compared to compounds alone (log change in CFU/mL) [10]: did not result in any significant change in activity | MBC in combination [10]: 6.0 µM | Synergistic? (Yes/No) Bliss* [10]: Yes | Synergistic? (Yes/No) HAS* [10]: No | MBC in combination [11]: 1.1 µM | Antimicrobial activity on co-administration with S16 compared to compounds alone (log change in CFU/mL) [11]: enhanced efficacy | Synergistic? (Yes/No) Bliss* [11]: Yes | Synergistic? (Yes/No) HAS* [11]: Yes | Antimicrobial activity on co-administration with S16 compared to compounds alone (log change in CFU/mL) ([12]; P. aeruginosa wild-type, t=3 h): did not result in any significant change in activity | MBC in combination ([12]; P. aeruginosa, 3 h): 1.2 µM | Antimicrobial activity on co-administration with S16 compared to compounds alone (log change in CFU/mL) ([12]; P. aeruginosa, t=1.5 h): enhancement in efficacy | Synergistic? (Yes/No) Bliss* ([12]; P. aeruginosa, 3 h): No | Synergistic? (Yes/No) HAS* ([12]; P. aeruginosa, 3 h): No

CC1(C)S[C@@H]2[C@H](NC(=O)[C@H](N)c3ccccc3)C(=O)N2[C@H]1C(=O)O [Amp, ampicillin]
MBC ([1]; Pseudomonas aeruginosa): < 1.4 µM | MBC [1]: <1.4 µM | MIC ([2]; Acinetobacter baumannii): > 2930 µM | Susceptibility [2]: Resistant | MBC ([3]; Escherichia coli, ATCC25922, compound alone): 9.4 µM (≈ 3.28 µg/mL) | MBC ([4]; Acinetobacter baumannii, ATCC19606): > 2930 µM | MBC ([5]; Klebsiella pneumoniae, ATCC13883, compound alone): 655 µM (≈ 229 µg/mL) | MBC ([6]; Pseudomonas aeruginosa, ATCC47085): > 5860 µM | MBC [6]: >5860.0 µM | Interaction with S16 as evaluated by the Bliss Independence and HSA models (in words) ([13]; 3 h time point): synergistic | MBC in combination ([13]; S16 and antibiotic co-administered, each at MBC50, 3 h): 2930.7 µM | Antimicrobial activity on co-administration with S16 compared to compounds alone (log change in CFU/mL) ([13]; all compounds at MBC50, t=3 h): Enhanced antimicrobial activity | Synergistic? (Yes/No) Bliss* ([13]; antibiotic in combination with S16, 3 h, Bliss Independence model): Yes | Synergistic? (Yes/No) HAS* ([13]; antibiotic in combination with S16, 3 h, Highest Single Agent model): Yes | MBC ([7]; Acinetobacter baumannii): > 2930 µM | Interaction with S16 as evaluated by the Bliss Independence and HSA models (in words) ([9]; 3 h time point): additive | MBC in combination [9]: 5.7 µM | Antimicrobial activity on co-administration with S16 compared to compounds alone (log change in CFU/mL) [9]: significantly enhanced antimicrobial activity | Synergistic? (Yes/No) Bliss* [9]: No | Synergistic? (Yes/No) HAS* [9]: No | Interaction with S16 as evaluated by the Bliss Independence and HSA models (in words) [10]: additive | Antimicrobial activity on co-administration with S16 compared to compounds alone (log change in CFU/mL) [10]: significantly enhanced antimicrobial activity | MBC in combination [10]: 1465.4 µM | Synergistic? (Yes/No) Bliss* [10]: No | Synergistic? (Yes/No) HAS* [10]: No | Interaction with S16 as evaluated by the Bliss Independence and HSA models (in words) ([11]; 3 h time point): synergistic | MBC in combination [11]: 327.6 µM | Antimicrobial activity on co-administration with S16 compared to compounds alone (log change in CFU/mL) [11]: significantly enhanced antimicrobial activity | Synergistic? (Yes/No) Bliss* [11]: Yes | Synergistic? (Yes/No) HAS* [11]: Yes | Interaction with S16 as evaluated by the Bliss Independence and HSA models (in words) ([12]; P. aeruginosa wild-type, 3 h time point): synergistic | Antimicrobial activity on co-administration with S16 compared to compounds alone (log change in CFU/mL) ([12]; P. aeruginosa wild-type, t=3 h): significantly enhanced antimicrobial activity | Fold reduction of MBC ([12]; P. aeruginosa): > 16 fold | Fold reduction of MBC ([12]; P. aeruginosa, listed as ampicillin): more than 16 fold | MBC in combination ([12]; P. aeruginosa, 3 h): 2930.7 µM | reduction (printed in parentheses beside fold reduction of MBC) ([12]; P. aeruginosa, antibiotic co-administered with S16): 99.9% | MBC in combination, MBCeff ([12]; P. aeruginosa, co-administered S16 (at MBC50) and antibiotic, antibiotic concentration giving at least 2-log reduction in CFU/mL, 3 h): 366.3^a μM | Synergistic? (Yes/No) Bliss* ([12]; P. aeruginosa, 3 h): Yes | Synergistic? (Yes/No) HAS* ([12]; P. aeruginosa, 3 h): Yes
